Assay results: the NIST ThermoML archive (doi:10.1021/acs.jced.6b00210)
± gives the expanded uncertainty stated by the source.

Assays:
[1] = xn = mol fraction of the nth substance listed; details: 100 kPa, Liquid, x2 = 0; for viscosity: Concentric cylinders viscometry; for mass density: Vibrating tube method
[2] = 100 kPa, Liquid; for viscosity: Concentric cylinders viscometry; for mass density: Vibrating tube method

CCCC(C)O (stereo not drawn) [pentan-2-ol] + Nc1ccccc1
[1]
Details | mass density [kg/m3] | viscosity [mPa·s]
293.15 K | 809.3 ± 0.2 | 3.97 ± 0.48
298.15 K | 805.3 ± 0.2 | 3.44 ± 0.41
303.15 K | 801.2 ± 0.2 | 2.94 ± 0.35
308.15 K | 797 ± 0.2 | 2.48 ± 0.3
313.15 K | 792.7 ± 0.2 | 2.04 ± 0.25
318.15 K | 788.4 ± 0.2 | 1.65 ± 0.2
323.15 K | 784 ± 0.2 | 1.29 ± 0.16

CCC(C)O (stereo not drawn) [butan-2-ol] + Nc1ccccc1
[1]
Details | mass density [kg/m3] | viscosity [mPa·s]
293.15 K | 806.7 ± 0.2 | 3.67 ± 0.44
298.15 K | 802.7 ± 0.2 | 3.04 ± 0.37
303.15 K | 798.4 ± 0.2 | 2.54 ± 0.31
308.15 K | 794.1 ± 0.2 | 2.13 ± 0.26
313.15 K | 789.8 ± 0.2 | 1.8 ± 0.22
318.15 K | 785.2 ± 0.2 | 1.54 ± 0.19
323.15 K | 780.6 ± 0.2 | 1.33 ± 0.16

CCC(C)O (stereo not drawn) [butan-2-ol]
[2]
Details | mass density [kg/m3] | viscosity [mPa·s]
293.15 K | 806.7 ± 0.2 | 3.67 ± 0.44
298.15 K | 802.7 ± 0.2 | 3.04 ± 0.37
303.15 K | 798.4 ± 0.2 | 2.54 ± 0.31
308.15 K | 794.1 ± 0.2 | 2.13 ± 0.26
313.15 K | 789.8 ± 0.2 | 1.8 ± 0.22
318.15 K | 785.2 ± 0.2 | 1.54 ± 0.19
323.15 K | 780.6 ± 0.2 | 1.33 ± 0.16

CC(C)O [propan-2-ol] + Nc1ccccc1
[1]
Details | mass density [kg/m3] | viscosity [mPa·s]
293.15 K | 785.4 ± 0.2 | 2.42 ± 0.29
298.15 K | 781.1 ± 0.2 | 2.08 ± 0.25
303.15 K | 776.8 ± 0.2 | 1.8 ± 0.22
308.15 K | 772.4 ± 0.2 | 1.56 ± 0.19
313.15 K | 768 ± 0.2 | 1.36 ± 0.16
318.15 K | 763.4 ± 0.2 | 1.19 ± 0.14
323.15 K | 758.8 ± 0.2 | 1.05 ± 0.13

CC(C)O [propan-2-ol]
[2]
Details | mass density [kg/m3] | viscosity [mPa·s]
293.15 K | 785.4 ± 0.2 | 2.42 ± 0.29
298.15 K | 781.1 ± 0.2 | 2.08 ± 0.25
303.15 K | 776.8 ± 0.2 | 1.8 ± 0.22
308.15 K | 772.4 ± 0.2 | 1.56 ± 0.19
313.15 K | 768 ± 0.2 | 1.36 ± 0.16
318.15 K | 763.4 ± 0.2 | 1.19 ± 0.14
323.15 K | 758.8 ± 0.2 | 1.05 ± 0.13

CCCC(C)O (stereo not drawn) [pentan-2-ol]
[2]
Details | mass density [kg/m3] | viscosity [mPa·s]
293.15 K | 809.3 ± 0.2 | 3.97 ± 0.48
298.15 K | 805.3 ± 0.2 | 3.44 ± 0.41
303.15 K | 801.2 ± 0.2 | 2.94 ± 0.35
308.15 K | 797 ± 0.2 | 2.48 ± 0.3
313.15 K | 792.7 ± 0.2 | 2.04 ± 0.25
318.15 K | 788.4 ± 0.2 | 1.65 ± 0.2
323.15 K | 784 ± 0.2 | 1.29 ± 0.16

Nc1ccccc1 [aniline]
[2]
Details | mass density [kg/m3] | viscosity [mPa·s]
293.15 K | 1021.7 ± 0.3 | 4.37 ± 0.53
298.15 K | 1017.4 ± 0.3 | 3.8 ± 0.46
303.15 K | 1013.2 ± 0.3 | 3.13 ± 0.38
308.15 K | 1009 ± 0.3 | 2.75 ± 0.33
313.15 K | 1004.7 ± 0.3 | 2.43 ± 0.29
318.15 K | 1000.4 ± 0.3 | 2.14 ± 0.26
323.15 K | 995.5 ± 0.3 | 1.96 ± 0.24
